Broadly, the IC50 is the concentration needed to halve the response being measured. Low readings indicate greater potency, high ones weaker potency.

What all share (experiment): In Vitro Kinase Assay
For one test, the target named is T1, Aurora kinase A (Homo sapiens, UniProt O14965).
T1 sequence (O14965 whole entry): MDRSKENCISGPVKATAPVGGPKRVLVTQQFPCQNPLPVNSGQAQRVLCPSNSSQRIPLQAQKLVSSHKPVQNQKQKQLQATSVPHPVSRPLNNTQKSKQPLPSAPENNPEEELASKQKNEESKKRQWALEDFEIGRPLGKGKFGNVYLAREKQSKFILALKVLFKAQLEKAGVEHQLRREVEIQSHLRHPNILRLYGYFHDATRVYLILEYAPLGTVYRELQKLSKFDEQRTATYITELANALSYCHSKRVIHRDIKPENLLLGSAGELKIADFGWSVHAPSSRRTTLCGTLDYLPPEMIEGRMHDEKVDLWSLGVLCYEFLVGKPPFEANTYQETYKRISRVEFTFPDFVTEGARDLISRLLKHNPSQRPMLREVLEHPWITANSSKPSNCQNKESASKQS
From the text:
(§1) In vitro kinase assay of Aurora A, B, and C using Z-LYTE technology (Invitrogen) and ATP at Km apparent for each kinase.

Another test deals with Aurora kinase B (Homo sapiens, UniProt Q96GD4).
Text: as §1

In another test the target is T2, Aurora kinase C (Homo sapiens, UniProt Q9UQB9).
T2 sequence (Q9UQB9 whole entry): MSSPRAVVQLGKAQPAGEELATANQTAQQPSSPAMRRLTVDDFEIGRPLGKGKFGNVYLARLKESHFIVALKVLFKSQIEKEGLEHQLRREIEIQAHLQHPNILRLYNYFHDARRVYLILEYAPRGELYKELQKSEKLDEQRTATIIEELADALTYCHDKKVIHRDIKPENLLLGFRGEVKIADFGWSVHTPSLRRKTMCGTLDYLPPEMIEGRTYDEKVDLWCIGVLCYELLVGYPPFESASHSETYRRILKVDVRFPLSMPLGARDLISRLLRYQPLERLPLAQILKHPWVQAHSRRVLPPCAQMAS
Text: as §1

Chain of Aurora kinase B (Q96GD4 whole entry): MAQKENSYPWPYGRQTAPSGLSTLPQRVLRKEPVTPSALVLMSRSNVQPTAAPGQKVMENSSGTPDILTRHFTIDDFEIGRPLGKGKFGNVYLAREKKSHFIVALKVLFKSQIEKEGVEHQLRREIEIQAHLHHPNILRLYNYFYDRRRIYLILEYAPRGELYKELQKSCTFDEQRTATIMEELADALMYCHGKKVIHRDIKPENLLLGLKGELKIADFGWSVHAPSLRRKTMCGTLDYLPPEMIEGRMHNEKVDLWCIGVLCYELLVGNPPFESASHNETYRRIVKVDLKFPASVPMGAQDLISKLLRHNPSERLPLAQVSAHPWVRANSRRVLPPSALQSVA

On to `CN1C(=O)c2ccccc2N(C)c2nc(Nc3ccc(C(=O)N4CCC(O)CC4)c(C(F)(F)F)c3)ncc21` [Benzo[e]pyrimido[5,4-b][1,4]diazepin-6(11H)-one, 19], for which the IC50 at Aurora kinase A was determined as 5.1 nM; on Aurora kinase B, 43.7 nM.

As for `CN1C(=O)c2ccccc2N(C)c2nc(Nc3ccc(S(=O)(=O)N4CCC(O)CC4)cc3)ncc21` [Benzo[e]pyrimido[5,4-b][1,4]diazepin-6(11H)-one, 4], the results for the concentration for half-maximal inhibition (IC50) on Aurora kinase A and at Aurora kinase B were 8.8 nM and 28.6 nM, respectively.

For `CN1CCN(C(=O)c2cccc(Nc3ncc4c(n3)N(C)c3ccccc3C(=O)N4C)c2)CC1` [Benzo[e]pyrimido[5,4-b][1,4]diazepin-6(11H)-one, 15], the results for the half-inhibitory concentration (IC50) on Aurora kinase A and at Aurora kinase B were 14.9 nM and 36.7 nM, respectively.

In the case of `CN1CCN(c2cccc(Nc3ncc4c(n3)N(C)c3ccccc3C(=O)N4C)c2)CC1` [Benzo[e]pyrimido[5,4-b][1,4]diazepin-6(11H)-one, 17], the 50% inhibitory concentration (IC50) at Aurora kinase A came to 11.9 nM; on Aurora kinase B it was 55.8 nM.

On to `CN1C(=O)c2ccccc2N(C)c2nc(Nc3ccc(S(N)(=O)=O)cc3)ncc21`, for which the IC50 on Aurora kinase A came out at 3.4 nM; against Aurora kinase B it was 8.4 nM.

In the case of `CN1C(=O)c2ccccc2N(C)c2nc(Nc3ccc(C(=O)N4CCC(O)CC4)c(Cl)c3)ncc21` [Benzo[e]pyrimido[5,4-b][1,4]diazepin-6(11H)-one, 20], the half-inhibitory concentration (IC50) against Aurora kinase A is 3.2 nM; at Aurora kinase B, 14.3 nM.

For `CN1C(=O)c2ccccc2N(C)c2nc(Nc3ccc(OCc4cccc(F)c4)cc3)ncc21` [Benzo[e]pyrimido[5,4-b][1,4]diazepin-6(11H)-one, 10], the IC50 is 323 nM on Aurora kinase A and 512 nM at Aurora kinase B.

For the compound `CCN1CCN(C(=O)Cc2ccc(Nc3ncc(F)c(Nc4ccc(C(=O)Nc5ccccc5Cl)cc4)n3)cc2)CC1` [Aurora Inhibitor, 35], the figures for the 50% inhibitory concentration (IC50) on Aurora kinase C, against Aurora kinase A and against Aurora kinase B were 432 nM, 3.2 nM and 1380 nM, respectively.

As to `CN1C(=O)c2ccccc2N(C)c2nc(Nc3ccc(OCc4ccccn4)c(Cl)c3)ncc21` [Benzo[e]pyrimido[5,4-b][1,4]diazepin-6(11H)-one, 14], the IC50 at Aurora kinase A turned out to be 53.2 nM; against Aurora kinase B it was 417 nM.

`CCN1CCN(Cc2ccc(Nc3ncc4c(n3)N(C)c3cc(F)ccc3C(=O)N4C)cc2C(F)(F)F)CC1` [Benzo[e]pyrimido[5,4-b][1,4]diazepin-6(11H)-one, 31]: the figures for the IC50 against Aurora kinase A and against Aurora kinase B were 298 nM and 586 nM, respectively.

As to `CN1CCN(Cc2cccc(Nc3ncc4c(n3)N(C)c3ccccc3C(=O)N4C)c2)CC1` [Benzo[e]pyrimido[5,4-b][1,4]diazepin-6(11H)-one, 16], the half-inhibitory concentration (IC50) on Aurora kinase A turned out to be 10.7 nM; on Aurora kinase B, 19.8 nM.

Regarding `CC1CCN(S(=O)(=O)c2ccc(Nc3ncc4c(n3)N(C)c3ccccc3C(=O)N4C)cc2)CC1` [Benzo[e]pyrimido[5,4-b][1,4]diazepin-6(11H)-one, 5], the 50% inhibitory concentration (IC50) against Aurora kinase A is 16.8 nM; on Aurora kinase B, 45.1 nM.

With `Cc1cc(Nc2ncc3c(n2)N(C)c2ccccc2C(=O)N3C)ccc1C(=O)N1CCN(C)CC1` [Benzo[e]pyrimido[5,4-b][1,4]diazepin-6(11H)-one, 21], the IC50 at Aurora kinase A was 3.7 nM; against Aurora kinase B, 14.5 nM.

`CCN1CCN(Cc2ccc(Nc3ncc4c(n3)N(C)c3c(F)cccc3C(=O)N4C)cc2C(F)(F)F)CC1` [Benzo[e]pyrimido[5,4-b][1,4]diazepin-6(11H)-one, 29]: the IC50 at Aurora kinase C amounted to 595 nM; at Aurora kinase A, 13.4 nM; against Aurora kinase B it was 487 nM.

For the compound `CN1C(=O)c2ccccc2N(C)c2nc(Nc3ccc(OCc4cccc(Cl)c4)cc3)ncc21` [Benzo[e]pyrimido[5,4-b][1,4]diazepin-6(11H)-one, 11], the values for the half-inhibitory concentration (IC50) at Aurora kinase A and at Aurora kinase B were 83.9 nM and 352 nM, respectively.

With `CCN(CCCOc1ccc2c(Nc3cc(CC(=O)Nc4cccc(F)c4)n[nH]3)ncnc2c1)CCOP(=O)(O)O`, the concentration for half-maximal inhibition (IC50) against Aurora kinase C amounted to 25.3 nM.

Take `CCN1CCN(Cc2ccc(Nc3ncc4c(n3)N(C)c3c(C)cccc3C(=O)N4C)cc2C(F)(F)F)CC1` [Benzo[e]pyrimido[5,4-b][1,4]diazepin-6(11H)-one, 28]: the IC50 against Aurora kinase A was found to be 11.6 nM; against Aurora kinase B, 132 nM.

Take `CN1CCN(c2ccc(Nc3ncc4c(n3)N(C)c3ccccc3C(=O)N4C)cc2)CC1` [Benzo[e]pyrimido[5,4-b][1,4]diazepin-6(11H)-one, 3]: the IC50 is 40.5 nM on Aurora kinase C, 7.2 nM against Aurora kinase A and 25.9 nM on Aurora kinase B.

In the case of `COc1cc(Nc2ncc3c(n2)N(C)c2ccccc2C(=O)N3C)ccc1C(=O)N1CCN(O)CC1` [Benzo[e]pyrimido[5,4-b][1,4]diazepin-6(11H)-one, 22], the concentration for half-maximal inhibition (IC50) against Aurora kinase A was found to be 2.6 nM; against Aurora kinase B, 24.2 nM.

Turning to `CN1C(=O)c2ccccc2N(C)c2nc(Nc3ccc(OCc4ccccn4)cc3)ncc21` [Benzo[e]pyrimido[5,4-b][1,4]diazepin-6(11H)-one, 9], the half-inhibitory concentration (IC50) against Aurora kinase A was determined as 18.4 nM; against Aurora kinase B, 39.3 nM.

For the compound `CN1CCN(C(=O)c2ccc(Nc3ncc4c(n3)N(C)c3ccccc3C(=O)N4C)cc2C(F)(F)F)CC1` [Benzo[e]pyrimido[5,4-b][1,4]diazepin-6(11H)-one, 12], the results for the IC50 against Aurora kinase A and against Aurora kinase B were 9 nM and 84.8 nM, respectively.

For the compound `CCN1CCN(C(=O)c2ccc(Nc3ncc4c(n3)N(C)c3ccccc3C(=O)N4C)cc2)CC1` [Benzo[e]pyrimido[5,4-b][1,4]diazepin-6(11H)-one, 7], the 50% inhibitory concentration (IC50) against Aurora kinase A turned out to be 5.9 nM; on Aurora kinase B, 15.2 nM.

For `CN1c2ccccc2C(=O)Nc2cnc(Nc3ccc(N4CCC(O)CC4)cc3)nc21` [Benzo[e]pyrimido[5,4-b][1,4]diazepin-6(11H)-one, 18], the results for the IC50 at Aurora kinase A and against Aurora kinase B were 98.5 nM and 216 nM, respectively.

For the compound `CCN1CCN(Cc2ccc(Nc3ncc4c(n3)N(C)c3cc(C)ccc3C(=O)N4C)cc2C(F)(F)F)CC1` [Benzo[e]pyrimido[5,4-b][1,4]diazepin-6(11H)-one, 30], the figures for the half-inhibitory concentration (IC50) on Aurora kinase A and at Aurora kinase B were 146 nM and 230 nM, respectively.

As to `CN1C(=O)c2ccccc2N(C)c2nc(Nc3ccc(N4CCC(O)CC4)cc3)ncc21` [Benzo[e]pyrimido[5,4-b][1,4]diazepin-6(11H)-one, 1], the figures for the half-maximal inhibitory concentration (IC50) against Aurora kinase C and against Aurora kinase A were 24.6 nM and 5.6 nM, respectively.

Consider `CCN1CCN(C(=O)Cc2ccc(Nc3ncc4c(n3)N(C)c3ccccc3C(=O)N4C)cc2)CC1` [Benzo[e]pyrimido[5,4-b][1,4]diazepin-6(11H)-one, 8], for which the IC50 on Aurora kinase A was determined as 6.1 nM; against Aurora kinase B, 18.7 nM.

As to `CN1CCN(c2ccc(Nc3ncc4c(n3)N(C)c3ccccc3C(=O)N4C)cc2C(F)(F)F)CC1` [Benzo[e]pyrimido[5,4-b][1,4]diazepin-6(11H)-one, 13], the results for the IC50 on Aurora kinase A and at Aurora kinase B were 86.8 nM and 774 nM, respectively.
